Columns and labels:
[1] = target: T1, human jejunal NK2 receptor (Homo sapiens, UniProt P21452); assay: Antagonism of iodinated tachykinin binding: NK2 receptor affinity in HSKR-1 cells (125 iodohistidyl-1-neurokinin A); conditions: HSKR-1 cells (mouse 3T3 fibroblasts expressing human jejunal NK2 receptor); 125I-neurokinin A 0.1 nM; 2 hr room temperature; mean of several experiments
T1 construct: expressed in transfected cells; host or cells: HSKR-1 cells (mouse 3T3 fibroblasts)
T1 sequence (P21452 1-398): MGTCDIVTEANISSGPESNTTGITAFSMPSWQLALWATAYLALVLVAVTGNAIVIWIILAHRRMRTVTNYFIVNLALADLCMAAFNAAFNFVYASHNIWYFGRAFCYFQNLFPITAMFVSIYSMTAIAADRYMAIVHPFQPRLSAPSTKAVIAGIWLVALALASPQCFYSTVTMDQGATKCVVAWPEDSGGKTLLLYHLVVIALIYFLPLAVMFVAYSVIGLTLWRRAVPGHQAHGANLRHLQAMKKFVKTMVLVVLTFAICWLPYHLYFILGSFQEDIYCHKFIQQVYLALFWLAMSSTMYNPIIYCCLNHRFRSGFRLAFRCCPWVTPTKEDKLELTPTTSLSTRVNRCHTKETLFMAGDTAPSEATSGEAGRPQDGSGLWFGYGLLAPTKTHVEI
Description: (§1) The NK1 receptor affinity of proposed tachykinin antagonists was evaluated in guinea pig lungs (Keystone Biologicals, Cleveland, Ohio) and affinity for the NK2 receptor evaluated in HSKR-1 cells (which are mouse 3T3 fibroblasts expressing the human jejunal NK2 receptor). Tissues or cells were homogenized with a Polytron in 15 volumes of 50 mM Tris-HCl buffer (pH 7.4, 4° C.) and centrifuged. The pellet was resuspended in Tris-HCl buffer and was centrifuged; the pellet was washed twice by resuspension. The final pellet was resuspended at a concentration of 40 mg/ml for tissues and 20 mg/ml for cells in incubation buffer and remained at room temperature for at least 15 min prior to use. Receptor binding was initiated by addition of 250 ul membrane preparation in duplicate to 0.1 nM of the following radioligands: ^125 I-Bolton Hunter Lys-3 labeled substance P and ^125 iodohistidyl-1-neurokinin A; in a final volume of 500 ul of buffer containing 50 mM Tris-HCl (pH 7.4 at room temperature), 0.1% bovine serum albumin, 2 mM MnCl2, 40 ug/ml bacitracin, 4 μg/ml leupeptin and chymostatin, 1 μM thiorphan and various doses of the putative tachykinin antagonists. Incubations were performed at room temperature for 90 min (NK1 receptor assays) or 2 hr (NK2 receptor assay); binding was terminated by addition of 50 mM Tris-HCl buffer (pH 7.4, 4° C.) and filtration under vacuum through GF/B filters presoaked with 0.1% polyethyleneimine (NK, receptor assays) or 0.5% bovine serum albumin (NK2 receptor assay). Filter bound radioactivity was quantitated in a gamma counter. Nonspecific binding was defined as binding in the presence of 1 μM substance P or neurokinin A. Specific binding was calculated by subtracting nonspecific binding from total binding. Competition of iodinated SP or NKA binding by test compounds or standards was expressed as a percentage of this maximum competition. IC50 values (concentration required to inhibit 50% of receptor binding) were generated for each of the test compounds by nonlinear regression using an iterative curve fitting program (GraphPAD Inplot, San Diego, Calif.).
(§2) IC50 values for some of the compounds of the present invention are found in Table 1 and represent the mean of several experiments.

[2] = target: T2, NK1 receptor (Cavia porcellus, UniProt P30547); assay: Antagonism of iodinated tachykinin binding: NK1 receptor affinity in guinea pig lungs (125I-Bolton Hunter Lys-3 labeled substance P); conditions: 125I-substance P 0.1 nM, 90 min room temperature, mean of several experiments
T2 construct: evaluated in guinea pig lungs; tissue Keystone Biologicals, Cleveland, Ohio; host or cells: guinea pig lung
T2 sequence (P30547 whole entry): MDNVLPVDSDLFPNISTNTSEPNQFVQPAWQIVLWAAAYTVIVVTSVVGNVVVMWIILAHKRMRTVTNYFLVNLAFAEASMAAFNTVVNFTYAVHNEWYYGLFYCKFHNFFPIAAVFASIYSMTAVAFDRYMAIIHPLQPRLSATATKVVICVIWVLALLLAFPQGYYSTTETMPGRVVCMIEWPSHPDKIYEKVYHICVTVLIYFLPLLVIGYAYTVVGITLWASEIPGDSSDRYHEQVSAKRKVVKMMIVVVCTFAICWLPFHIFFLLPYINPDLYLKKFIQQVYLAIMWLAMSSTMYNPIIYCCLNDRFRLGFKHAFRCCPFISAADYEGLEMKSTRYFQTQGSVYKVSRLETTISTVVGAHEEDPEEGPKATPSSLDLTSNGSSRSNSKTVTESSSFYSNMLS
Description: as §1, §2

Row | SMILES | IC50 [1] [nM] | IC50 [2] [nM]
1 | COC(=O)[C@H](Cc1c[nH]c2ccccc12)NCCN[C@@H](Cc1ccc2ccccc2c1)C(=O)N(C)Cc1ccccc1 [Compound No. 5] | 284 | 78.1
2 | COC(=O)[C@H](Cc1ccccc1)NCCN[C@@H](Cc1ccccc1)C(=O)N(C)Cc1ccccc1 [Compound No. 12, (S)-N-Benzyl-N-methyl-2-[[(S)-2-phenyl-1-carboxymethyl-ethylamino]-ethylamino]-3-phenyl-propionamide] | 1440 | 1430
3 | CN(Cc1ccccc1)C(=O)[C@H](Cc1ccccc1)NCCN[C@@H](Cc1c[nH]c2ccccc12)C(=O)O [Compound No. 16, (S)-N-Benzyl-N-methyl-2-[[(S)-2-(1H-indol-3-yl)-1-carboxy-ethylamino]-ethylamino]-3-phenyl-propionamide] | 1580 | 3800
4 | COC(=O)[C@H](Cc1c[nH]c2ccccc12)NCCN[C@@H](Cc1ccccc1)C(=O)N(C)Cc1ccccc1OC [Compound No. 4, (S)-N-(2-Methoxybenzyl)-N-methyl-2-[[(S)-2-(1H-indol-3-yl)-1-carboxymethyl-ethylamino]-ethylamino]-3-phenyl-propionamide] | 271 | 146
5 | COC(=O)[C@@H](Cc1c[nH]c2ccccc12)NCCN[C@@H](Cc1ccccc1)C(=O)N(C)Cc1ccccc1 [Compound No. 3, (S)-N-Benzyl-N-methyl-2-[[(R)-2-(1H-indol-3-yl)-1-carboxymethyl-ethylamino]-ethylamino]-3-phenyl-propionamide] | 215 | 929
6 | COC(=O)[C@H](Cc1c[nH]c2ccccc12)NCCN[C@@H](Cc1ccccc1)CN(C)C(=O)c1cc(OC)c(OC)c(OC)c1 [Compound No. 10, N-Methyl-N-[(S)-2-[[(S)-2-(1H-indol-3-yl)-1-carboxymethyl-ethylamino]-ethylamino]-3-phenyl-propyl]-(3,4,5-trimethoxy)benzamide] | 2560 | 631
7 | COC(=O)[C@H](Cc1c[nH]c2ccccc12)NCCN[C@@H](Cc1ccc2ccccc2c1)C(=O)N(C)Cc1ccc(Cl)c(Cl)c1 [Compound No. 2, (S)-N-(3,4-Dichlorobenzyl)-N-methyl-2-[[(S)-2-(1H-indol-3-yl)-1-carboxymethyl-ethylamino]-ethylamino]-3-(naphth-2-yl)-propionamide] | 632 | 61.5
8 | COC(=O)[C@H](Cc1c[nH]c2ccccc12)NCCN[C@@H](Cc1ccccc1)C(=O)N(C)Cc1cc(OC)c(OC)c(OC)c1 [Compound No. 8, (S)-N-(3,4,5-Trimethoxybenzyl)-N-methyl-2-[[(S)-2-(1H-indol-3-yl)-1-carboxymethyl-ethylamino]ethylamino]-3-phenyl-propionamide] | 1990 | 711
9 | CC(Cc1c[nH]c2ccccc12)NCCN[C@@H](Cc1ccccc1)C(=O)N(C)Cc1ccccc1 (mixture of isomers) [Compound No. 11, (S)-N-Benzyl-N-methyl-2-[[(R and S)-2-(1H-indol-3-yl)-1-methyl-ethylamino]-ethylamino]-3-phenyl-propionamide] | 131 | 953
10 | COC(=O)[C@H](Cc1c[nH]c2ccccc12)NCCN(C(=O)OC(C)(C)C)[C@@H](Cc1ccc2ccccc2c1)C(=O)N(C)Cc1ccccc1 [Compound No. 15, (S)-N-Benzyl-N-methyl-2-[[(S)-2-(1H-indol-3-yl)-1-carboxymethyl-ethylamino]-N'-(t-butoxycarbonyl)ethylamino]-3-(naphth-2-yl)-propionamide] | 2560 | > 10000
11 | COC(=O)[C@@H](NCCN[C@@H](Cc1ccccc1)C(=O)N(C)Cc1ccccc1)c1ccccc1 [Compound No. 13, (S)-N-Benzyl-N-methyl-2-[[(S)-1-phenyl-1-carboxymethyl-methylamino]-ethylamino]-3-phenyl-propionamide] | 4710 | 2410
12 | CN(Cc1ccccc1)C(=O)[C@H](Cc1ccccc1)NCCNCCc1c[nH]c2ccccc12 [Compound No. 9] | 114 | 778
13 | CN(Cc1ccccc1)C(=O)[C@H](Cc1ccccc1)NCCN[C@@H](Cc1c[nH]c2ccccc12)C(N)=O [Compound No. 7, (S)-N-Benzyl-N-methyl-2-[[(S)-2-(1H-indol-3-yl)-1-carboxylic acid amide-ethylamino]-ethylamino]-3-phenyl-propionamide] | 211 | 472
14 | COC(=O)[C@H](Cc1c[nH]c2ccccc12)NCCN[C@@H](Cc1ccccc1)C(=O)N(C)Cc1ccccc1 [Compound No. 6, (S)-N-Benzyl-N-methyl-2-[[(S)-2-(1H-indol-3-yl)-1-carboxymethyl-ethylamino]-ethylamino]-3-phenyl-propionamide] | 228 | 294
15 | COC(=O)[C@H](Cc1c[nH]c2ccccc12)NCCN[C@@H](Cc1ccccc1)CN(C)C(=O)c1ccccc1 [Compound No. 14, N-Methyl-N-[(S)-2-[[(S)-2-(1H-indol-3-yl)-1-carboxymethyl-ethylamino]-ethylamino]-3-phenyl-propyl]-benzamide] | 1220 | 10000

— patent publication US5597845A, “Substituted alkyldiamine derivatives” (Merrell Pharmaceuticals Inc., priority 1994, dated 1997)
